Columns and labels:
[1] = target: human 5-HT2Cedited receptor (Homo sapiens, UniProt P28335); experiment: Radioligand binding competition, 5-HT2Cedited; details: selectivity panel
h5-HT7R = h5-HT7R (Homo sapiens (Human), UniProt P34969); experiment: ERK1/2 and c-SRC phosphorylation by western blot in HEK-293 cells stably expressing h5-HT7R; format: cell-based
Description: (A, B, C, D, E, F) Time course of activation of ERK1/2 after stimulation of HEK-293 cells stably expressing h5-HT7R with various 5-HT7R ligands used at 10 μM. The cells were stimulated for the indicated periods and assayed for detection of phospho ERK1/2 by western blot analysis. […] Representative blots of three independent experiments are illustrated. The histogram on the right of each panel represents the results of densitometric analyses of three independent experiments. Data are means±SEM. * p<0.05; ** p<0.01; *** p<0.001 versus non stimulated cells (NS).
HEK-293 cells stably expressing h5-HT7R were stimulated with increasing concentrations of 5-CT or Serodolin for 7 minutes. Cells were lysed, and western blot analysis was performed. Representative Western blots from three independent experiments were shown in A-C. Quantification was performed by densitometric analyses from three independent experiments. Analyzed data were plotted versus log concentration for each compounds (A; B) or as bar graph (C) on the right panel.
Time course of activation of ERK1/2 after stimulation of HEK-293 cells stably expressing h5-HT7R with JLB060, a 5-HT7R ligand used at 10 μM. The cells were stimulated for the indicated periods and assayed for detection of phospho ERK1/2 by western blot analysis.
(§1) Treated cells were washed twice with cold PBS and lysed on ice for 30 min in lysis buffer containing 50 mM Tris pH 7.5, 150 mM NaCl, 10 mM EDTA, 1% Triton X-100 and the protease inhibitor cocktail. Cell lysates were centrifuged at 10,000×g for 10 min. Supernatant was then solubilized in Laemmli buffer with 0.1% β-mercaptoethanol. Samples were resolved by electrophoresis on 10% SDS-PAGE, and transferred electrophoretically to polyvinylidene fluoride (PVDF) membranes (GE Healthcare Life Sciences). […] membranes were washed in Tris-buffered saline (TBS; pH 7.4) containing 0.1% Tween-20 (TBS-T; 0.1%) and blocked with 5% (w/v) dry milk TBS-T 0.1% for 30 min. […] Blots were probed with anti-arrestin, anti-Phospho-ERK or anti-ERK antibody (1:2000), anti Phospho-SRC, anti SRC antibody, anti-HA or anti-GFP or anti-actin antibodies. Horseradish-peroxidase-conjugated goat anti-rabbit, anti-mouse or anti-rat antibodies (1:33,000) were used as secondary antibodies. Immunoreactive bands were detected using the Dura detection kit. Protein quantification on blots was performed using Quantity One software (Biorad).
as §1, with “12%” for “10%”, “with” for “with anti-arrestin,”, “anti-Phospho-ERK (1:2000)” for “anti-Phospho-ERK”, “anti-GAPDH” for “anti-ERK”, “(1:5000). […]” for “(1:2000), anti Phospho-SRC, anti SRC antibody, anti-HA or anti-GFP or anti-actin antibodies. Horseradish-peroxidase-conjugated goat anti-rabbit, anti-mouse or anti-rat antibodies (1:33,000) were used as secondary antibodies.”
ERK phosphorylation was monitored by western blotting after treatment of cells with 10 μM of ligands at different times ranging from 2 to 60 minutes.

[2] = test system: neuronal culture endogenously expressing 5-HT7R; experiment: pERK immunocytochemistry in mixed neuronal cultures; format: cell-based, mice; details: 10 μM; 7, 15, 30 min
Source text: FIG. 4: Serodolin stimulation induces ERK phosphorylation in neuronal culture. […] These images are representative of two independent experiments. (B) pERK fluorescence intensity (AU) from immunofluorescence staining. Results represent mean±SEM of values obtained in two independent experiments (150-200 cells counted per group). ****P<0.0001 ***P<0.001 **P<0.01 *P<0.05. Statistical analysis was done using Tukey's multiple comparison test. Cerebral cortex from embryos (E15) mice were collected and mechanically dissociated in 1 mL of HBSS (-Ca^2+) (Sigma) with HEPES (H3375, Sigma). […] Neuronal differentiation was performed in 24-well plates, during 7 days with 3 medium changes per week. Stimulated neuronal culture were fixed with 4% paraformaldehyde in PBS during 10 min and then washed with PBS. Cells were saturated with 0.3% Triton X-100 in 1% BSA in TBS-FCS 10% for 1 hr, followed by three washes in TBS and incubated overnight with rabbit anti-pERK (9101 1/200, Cell Signaling) and mouse anti-MAP2 (119942 1/250, Sigma), anti-GFAP (G61711/250, Sigma) in TBS with 1% BSA, 10% FCS and 0.3% Triton X-100. […] Images were processed with the Zen software analyzed with Image J.

mice = experiment: CFA-induced mechanical hypersensitivity, Von Frey filament test; format: in vivo; details: 5 mg/kg, s.c.
Description: Mechanical hypersensitivity was evaluated after CFA intraplantar injection by using the Von Frey test. […] Mechanical hypersensitivity was performed 24 hrs later (pre-treatment) CFA intraplantar injection into the left hind paw (ipsilateral paw). […] The ligand effects (E55888 or Serodolin) were evaluated 30 min and 24 hrs after in the ipsilateral paw. Data are means±SEM of values obtained in 2 independent experiments (n=8 to 10 per group). ****p<0.0001 ***p<0.001 **p<0.01 *p<0.05. Statistical analysis was done using Kruskal Wallis test.
Von Frey filament test. Before inducing peripheral inflammation, each animal was tested on the left hind paw with Von Frey Filament to determine its basal sensibility level. Then, peripheral inflammation was induced by intraplantar injection of Complete Freund's Adjuvant (CFA-10 μL) (F5881, Sigma) in the left hind paw (ipsilateral paw) and mechanical allodynia was measure (pre-treatment). Mice were divided into two groups, one with E55888 (5 mg/kg) and the other with Serodolin (5 mg/kg) subcutaneous injections in the ipsilateral paw. Both in absence (−) or in presence (+) of the 5-HT7R antagonist SB269960 (5 mg/kg), intraperitoneally, 20 min before the agonist injections (8-10 mice per group).
The inventors wanted to evaluate the effect of Serodolin on mechanical hypersensitivity in comparison with E-55888 after CFA injection.

Chain of h5-HT7R (P34969 1-432): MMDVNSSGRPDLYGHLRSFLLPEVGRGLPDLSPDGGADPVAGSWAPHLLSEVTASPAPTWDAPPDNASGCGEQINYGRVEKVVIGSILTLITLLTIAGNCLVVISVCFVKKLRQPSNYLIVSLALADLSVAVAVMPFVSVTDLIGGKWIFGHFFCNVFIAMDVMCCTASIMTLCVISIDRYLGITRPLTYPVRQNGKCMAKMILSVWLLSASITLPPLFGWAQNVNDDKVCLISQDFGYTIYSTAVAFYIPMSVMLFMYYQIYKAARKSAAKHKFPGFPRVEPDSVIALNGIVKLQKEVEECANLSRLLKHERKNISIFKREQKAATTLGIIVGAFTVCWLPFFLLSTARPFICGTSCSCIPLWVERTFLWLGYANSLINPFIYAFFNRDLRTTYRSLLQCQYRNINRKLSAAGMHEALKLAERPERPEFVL
Chain of human 5-HT2Cedited receptor (P28335 33-458 limits assumed): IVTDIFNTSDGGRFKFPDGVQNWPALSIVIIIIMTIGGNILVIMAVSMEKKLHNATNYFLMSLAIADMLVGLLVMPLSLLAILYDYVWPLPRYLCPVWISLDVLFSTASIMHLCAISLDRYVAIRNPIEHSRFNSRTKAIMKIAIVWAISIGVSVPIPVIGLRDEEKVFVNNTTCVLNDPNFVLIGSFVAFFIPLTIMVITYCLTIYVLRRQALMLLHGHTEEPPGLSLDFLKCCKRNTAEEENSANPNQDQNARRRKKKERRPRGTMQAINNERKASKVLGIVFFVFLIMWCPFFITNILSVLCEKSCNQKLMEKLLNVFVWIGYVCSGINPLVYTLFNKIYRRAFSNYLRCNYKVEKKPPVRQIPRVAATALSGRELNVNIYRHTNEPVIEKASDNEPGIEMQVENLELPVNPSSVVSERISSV

Structure (SMILES): O=c1[nH]c2ccccc2n1CN1CCN(c2ccc(F)cc2)CC1 [Serodolin]
- IC50 ([1]; read-out: RLB 5-HT2Cedited IC50): 1110 nM
- Ki ([1]; read-out: RLB 5-HT2Cedited Ki): 182 nM
- induction of ERK phosphorylation (h5-HT7R; 10 μM of ligand or increasing concentrations, western blot): concentration-dependent increase of ERK phosphorylation
- ERK phosphorylation at the maximal effect (h5-HT7R; 10 μM of ligand, 2 to 60 minutes): 409±34 % of control
- phosphorylation of c-SRC kinase at Tyr416 (h5-HT7R; western blot, 7 minutes): induced only after activation of 5-HT7R by Serodolin
- ERK phosphorylation in neuronal culture [2]: ERK phosphorylation also occurs in neuronal culture
- CFA-induced mechanical hypersensitivity, 30 minutes after administration (mice; 30 minutes): Significantly decreased paw withdrawals thresholds (anti-allodynia)
- anti-allodynic effect 24 later (mice; 24 hrs): still significant

Source: US20240199555A1, “APPLICATIONS OF BIASED LIGANDS OF THE SEROTONIN 5-HT7 RECEPTOR FOR THE TREATMENT OF PAIN, MULTIPLE SCLEROSIS AND THE CONTROL OF THERMOREGULATION” (Centre National de la Recherche Scientifique, priority 2021, published 2024)
